Data: EP3925956B1, “1H-INDAZOLE-3-CARBOXAMIDE DERIVATIVES AND RELATED COMPOUNDS AS FACTOR D INHIBITORS FOR TREATING DISEASES CHARACTERIZED BY ABERRANT COMPLEMENT SYSTEM ACTIVITY, SUCH AS E.G. IMMUNOLOGICAL DISORDERS” (BioCryst Pharmaceuticals, Inc., priority 2016, dated 2017)

biological target: Factor D (Homo sapiens, UniProt P00746); assay: Factor D esterolytic assay
Sequence (P00746 26-253): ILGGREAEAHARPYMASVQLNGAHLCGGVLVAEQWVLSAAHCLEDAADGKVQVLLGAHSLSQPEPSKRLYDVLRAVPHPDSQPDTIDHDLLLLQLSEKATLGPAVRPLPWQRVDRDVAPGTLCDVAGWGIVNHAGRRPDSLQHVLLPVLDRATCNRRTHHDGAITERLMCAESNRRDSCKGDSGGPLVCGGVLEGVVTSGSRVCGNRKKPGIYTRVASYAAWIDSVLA

Row | Compound | IC50 [µM]
1 | C[C@@H](O)[C@H](NC(=O)Cn1nc(C(N)=O)c2ccccc21)C(=O)NCc1cccc(Cl)c1F [34d, 1-(2-(((2S,3R)-1-((3-chloro-2-fluorobenzyl)amino)-3-hydroxy-1-oxobutan-2-yl)amino)-2-oxoethyl)-1H-indazole-3-carboxamide] | > 10
2 | Nc1ncnc2c1ccn2CC(=O)N(CC(=O)Nc1cccc(Br)n1)C1CC1 [56d, 2-(4-amino-7H-pyrrolo[2,3-d]pyrimidin-7-yl)-N-(2-((6-bromopyridin-2-yl)amino)-2-oxoethyl)-N-cyclopropylacetamide] | 1 to 10
3 | CC(C)N(CC(=O)NCc1cccc(Cl)c1F)C(=O)Cn1cc(C#N)c2c(N)ncnc21 [60a, 2-(4-amino-5-cyano-7H-pyrrolo[2,3-d]pyrimidin-7-yl)-N-(2-((3-chloro-2-fluorobenzyl)amino)-2-oxoethyl)-N-isopropylacetamide] | 1 to 10
4 | Nc1ncnc2c1ccn2CC(=O)N(CC(=O)NCc1cccc(Cl)c1F)C1CC1 [63a, 2-(4-amino-7H-pyrrolo[2,3-d]pyrimidin-7-yl)-N-(2-((3-chloro-2-fluorobenzyl)amino)-2-oxoethyl)-N-cyclopropylacetamide] | 1 to 10
5 | CC(C)N(CC(=O)NCc1cccc(Cl)c1F)C(=O)Cn1cc(C(N)=O)c2c(N)ncnc21 [65a, 4-amino-7-(2-((2-((3-chloro-2-fluorobenzyl)amino)-2-oxoethyl)(isopropyl)amino)-2-oxoethyl)-7H-pyrrolo[2,3-d]pyrimidine-5-carboxamide] | 1 to 10
6 | Nc1ncnc2c1cnn2CC(=O)N(CC(=O)NCc1cccc(Cl)c1F)C1CC1 [68a, 2-(4-amino-1H-pyrazolo[3,4-d]pyrimidin-1-yl)-N-(2-((3-chloro-2-fluorobenzyl)amino)-2-oxoethyl)-N-cyclopropylacetamide] | 1 to 10
7 | NC(=O)c1ncnc2c1ccn2CC(=O)N(CC(=O)Nc1cncc(Br)n1)C1CC1 [84a, 7-(2-((2-((6-bromopyrazin-2-yl)amino)-2-oxoethyl)(cyclopropyl)amino)-2-oxoethyl)-7H-pyrrolo[2,3-d]pyrimidine-4-carboxamide] | > 10
8 | NC(=O)c1nn(CC(=O)N(CC(=O)NCc2cccc(Cl)c2F)[C@H]2C[C@@H](O)C2)c2ccccc12 [104b, 1-(2-((2-((3-chloro-2-fluorobenzyl)amino)-2-oxoethyl)((cis)-3-hydroxycyclobutyl)amino)-2-oxoethyl)-1H-indazole-3-carboxamide] | < 1
9 | NC(=O)c1nn(CC(=O)N(CC(=O)NCc2cccc(Cl)c2F)[C@H]2C[C@H](O)C2)c2ccccc12 [110b, 1-(2-((2-((3-chloro-2-fluorobenzyl)amino)-2-oxoethyl)((trans)-3-hydroxycyclobutyl)amino)-2-oxoethyl)-1H-indazole-3-carboxamide] | < 1
10 | CC(=O)c1cn(CC(=O)N(CC(=O)NCc2cccc(Cl)c2F)[C@H]2C[C@H](O)C2)c2ccc(Nc3cncnc3)cc12 [114a, 2-(3-acetyl-5-(pyrimidin-5-ylamino)-1H-indol-1-yl)-N-(2-((3-chloro-2-fluorobenzyl)amino)-2-oxoethyl)-N-((trans)-3-hydroxycyclobutyl)acetamide] | < 1
11 | CC(=O)c1cn(CC(=O)N(CC(=O)NCc2cccc(Cl)c2F)C(C)C)c2ccc(C#Cc3cccnc3)cc12 [131a, 2-(3-acetyl-5-(pyridin-3-ylethynyl)-1H-indol-1-yl)-N-(2-((3-chloro-2-fluorobenzyl)amino)-2-oxoethyl)-N-isopropylacetamide] | < 1
12 | CC(C)(C)OC(=O)N[C@H]1C[C@@H](N(CC(=O)NCc2cccc(Cl)c2F)C(=O)Cn2nc(C(N)=O)c3ccccc32)C1 [152b, tert-butyl ((cis)-3-(2-(3-carbamoyl-1H-indazol-1-yl)-N-(2-((3-chloro-2-fluorobenzyl)amino)-2-oxoethyl)acetamido)cyclobutyl)carbamate] | < 1
13 | NC(=O)c1nn(CC(=O)N(CC(=O)NCc2cccc(Cl)c2F)[C@H]2C[C@@H](N)C2)c2ccccc12 [153a, 1-(2-(((cis)-3-aminocyclobutyl)(2-((3-chloro-2-fluorobenzyl)amino)-2-oxoethyl)amino)-2-oxoethyl)-1H-indazole-3-carboxamide] | < 1
14 | CC(C)(C)OC(=O)N[C@H]1C[C@H](CN(CC(=O)NCc2cccc(Cl)c2F)C(=O)Cn2nc(C(N)=O)c3ccccc32)C1 [161b, tert-butyl ((trans)-3-((2-(3-carbamoyl-1H-indazol-1-yl)-N-(2-((3-chloro-2-fluorobenzyl)amino)-2-oxoethyl)acetamido)methyl)cyclobutyl)carbamate] | 1 to 10
15 | NC(=O)c1nn(CC(=O)N(CC(=O)NCc2cccc(Cl)c2F)C[C@H]2C[C@H](N)C2)c2ccccc12 [161c, 1-(2-((((trans)-3-aminocyclobutyl)methyl)(2-((3-chloro-2-fluorobenzyl)amino)-2-oxoethyl)amino)-2-oxoethyl)-1H-indazole-3-carboxamide] | < 1
16 | NC(=O)c1nn(CC(=O)N(CC(=O)NCc2cccc(Cl)c2F)[C@H]2C[C@H](N)C2)c2ccccc12 [169c, 1-(2-(((trans)-3-aminocyclobutyl)(2-((3-chloro-2-fluorobenzyl)amino)-2-oxoethyl)amino)-2-oxoethyl)-1H-indazole-3-carboxamide] | < 1
17 | CO[C@H]1C[C@H](N(CC(=O)NCc2cccc(Cl)c2F)C(=O)Cn2nc(C(N)=O)c3ccccc32)C1 [170b, 1-(2-((2-((3-chloro-2-fluorobenzyl)amino)-2-oxoethyl)((trans)-3-methoxycyclobutyl)amino)-2-oxoethyl)-1H-indazole-3-carboxamide] | < 1
18 | NC(=O)c1nn(CC(=O)N(CC(=O)NCc2cccc(Cl)c2F)C[C@H]2C[C@H](O)C2)c2ccccc12 [172b, 1-(2-((2-((3-chloro-2-fluorobenzyl)amino)-2-oxoethyl)(((trans)-3-hydroxycyclobutyl)methyl)amino)-2-oxoethyl)-1H-indazole-3-carboxamide] | < 1
19 | CC(=O)c1nn(CC(=O)N(CC(=O)NCc2cccc(Cl)c2F)[C@H]2C[C@H](O)C2)c2ccc(Nc3cncnc3)cc12 [182a, 2-(3-acetyl-5-(pyrimidin-5-ylamino)-1H-indazol-1-yl)-N-(2-((3-chloro-2-fluorobenzyl)amino)-2-oxoethyl)-N-(trans-3-hydroxycyclobutyl)acetamide] | < 1
20 | CC(=O)c1nn(CC(=O)N(CC(=O)NCc2cccc(Cl)c2F)[C@H]2C[C@H](O)C2)c2ccccc12 [183a, 2-(3-acetyl-1H-indazol-1-yl)-N-(2-((3-chloro-2-fluorobenzyl)amino)-2-oxoethyl)-N-(trans-3-hydroxycyclobutyl)acetamide] | < 1
21 | N#Cc1cn(CC(=O)N(CC(=O)NCc2cccc(Cl)c2F)C2CC2)c2ccc(C(=O)NCc3ccccc3)cc12 [200i, N-benzyl-1-(2-((2-((3-chloro-2-fluorobenzyl)amino)-2-oxoethyl)(cyclopropyl)amino)-2-oxoethyl)-3-cyano-1H-indole-5-carboxamide] | 1 to 10
22 | NC(=O)c1nn(CC(=O)N(CC(=O)NCc2cccc(Cl)c2F)[C@H]2C[C@@H](CO)C2)c2ccccc12 [210b, 1-(2-((2-((3-chloro-2-fluorobenzyl)amino)-2-oxoethyl)((cis)-3-(hydroxymethyl)cyclobutyl)amino)-2-oxoethyl)-1H-indazole-3-carboxamide] | < 1
23 | COC(=O)c1ccc2c(c1)c(C(C)=O)nn2CC(=O)N(CC(=O)NCc1cccc(Cl)c1F)C1CC1 [227a, methyl 3-acetyl-1-(2-((2-((3-chloro-2-fluorobenzyl)amino)-2-oxoethyl)(cyclopropyl)amino)-2-oxoethyl)-1H-indazole-5-carboxylate] | < 1
24 | CC(O)c1nn(CC(=O)N(CC(=O)NCc2cccc(Cl)c2F)C2CC2)c2ccc(NC(=O)N3CCCC(F)(F)C3)cc12 (stereo not drawn) [289a, N-(1-(2-((2-((3-chloro-2-fluorobenzyl)amino)-2-oxoethyl)(cyclopropyl)amino)-2-oxoethyl)-3-(1-hydroxyethyl)-1H-indazol-5-yl)-3,3-difluoropiperidine-1-carboxamide] | 1 to 10
25 | CC(C)(C)CC(=O)Nc1ccc2c(C(N)=O)nn(CC(=O)N(CC(=O)NCc3cccc(Cl)c3F)C3CC3)c2c1 [322b, 1-(2-((2-((3-chloro-2-fluorobenzyl)amino)-2-oxoethyl)(cyclopropyl)amino)-2-oxoethyl)-6-(3,3-dimethylbutanamido)-1H-indazole-3-carboxamide] | < 1
26 | NC(=O)c1nn(CC(=O)N(CC(=O)NCc2cccc(Cl)c2F)C2CC2)c2ncc(N)cc12 [326b, 5-amino-1-(2-((2-((3-chloro-2-fluorobenzyl)amino)-2-oxoethyl)(cyclopropyl)amino)-2-oxoethyl)-1H-pyrazolo[3,4-b]pyridine-3-carboxamide] | 1 to 10
27 | C[C@H](CO)N(CC(=O)NCc1cccc(Cl)c1F)C(=O)Cn1nc(C(N)=O)c2cc(NC(=O)OC(C)(C)C)ccc21 [345e, (R)-tert-butyl (3-carbamoyl-1-(2-((2-((3-chloro-2-fluorobenzyl)amino)-2-oxoethyl)(1-hydroxypropan-2-yl)amino)-2-oxoethyl)-1H-indazol-5-yl)carbamate] | < 1
28 | NC(=O)c1nn(CC(=O)N(CC(=O)NCc2cccc(Cl)c2F)[C@H]2C[C@H](N)C2)c2ccc([N+](=O)[O-])cc12 [347b, 1-(2-(((trans)-3-aminocyclobutyl)(2-((3-chloro-2-fluorobenzyl)amino)-2-oxoethyl)amino)-2-oxoethyl)-5-nitro-1H-indazole-3-carboxamide] | < 1
29 | NC(=O)c1nn(CC(=O)N(CC(=O)Nc2cccc(Br)n2)[C@H]2C[C@H](N)C2)c2ccccc12 [349d, 1-(2-(((trans)-3-aminocyclobutyl)(2-((6-bromopyridin-2-yl)amino)-2-oxoethyl)amino)-2-oxoethyl)-1H-indazole-3-carboxamide] | < 1
30 | NC(=O)c1nn(CC(=O)N(CC(=O)Nc2cncc(Br)n2)[C@H]2C[C@H](N)C2)c2ccccc12 [350c, 1-(2-(((trans)-3-aminocyclobutyl)(2-((6-bromopyrazin-2-yl)amino)-2-oxoethyl)amino)-2-oxoethyl)-1H-indazole-3-carboxamide] | < 1
